{"source": "patent US7572439B2", "about": "“Enzyme disruption of bacterial biofilms” (priority 2002, dated 2009)", "test_system": "S. aureus", "test": "Killing of bacteria in lysostaphin-coated Angiocath catheters", "type": "cell-based", "protocol": "Two Angiocath catheters (Becton Dickinson) were incubated with 200 PI of a 100 μg/mL solution of lysostaphin, while two others were incubated in PBS. The catheters were allowed to incubate overnight at 4° C. The following morning the catheters were washed with 50 ml PBS using a pump with a flow rate of 1.5 ml/minute. Once the catheters were washed, S. aureus SA5 was diluted in PBS to a percent transmittance of 40. A 1:10,000 dilution of this solution was made, and 100 μl was added to each catheter. The catheters were allowed to incubate for two hours at 37° C. Following incubation, the catheter effluent was plated onto blood agar plates and put in the incubator overnight at 37° C. The colonies on the plates were counted the following morning.\nCoating of Catheters. The needles from the AngioCath catheters were removed and disposed. Using a 1 ml syringe, the catheters were coated with 200 μl of a 0.1 mg/ml solution of lysostaphin. The catheters were incubated for 1 hour, unless otherwise specified, at room temperature. The catheters were then washed with 50 ml of phosphate buffered saline using a peristaltic pump with a flow rate of 1.5 ml/minute. The catheters were then inoculated with 120 μl of a ˜5×10^4 CFU/ml solution of bacteria (diluted in TSB) and incubated for 2 hours at 37° C. The catheter effluent was then streaked onto a blood agar plate and incubated overnight at 37° C."}
{"substance": "lysostaphin", "values": [{"measurement": "CFU", "setting": "Angiocath, coating 100 μg/ml overnight 4° C., SA5 two hours 37° C.", "result": 0, "unit": "CFU"}, {"measurement": "CFU (n = 2)", "setting": "Table 13, AngioCath, coating concentration 0.1 mg/ml", "result": 0, "unit": "CFU"}, {"measurement": "CFU (n = 2)", "setting": "catheter coating 0.1 mg/ml, MRSA (MBT5040)", "result": 1, "unit": "CFU"}, {"measurement": "CFU (n = 2)", "setting": "catheter coating 0.1 mg/ml, SA5", "result": 1, "unit": "CFU"}, {"measurement": "CFU (n = 2)", "setting": "catheter coating 0.1 mg/ml, SA8", "result": 0, "unit": "CFU"}, {"measurement": "reduction of bacterial counts", "setting": "catheters coated 5 minutes with 0.1 mg/ml", "result": 98.7, "unit": "%"}, {"measurement": "reduction of bacterial counts", "setting": "catheters coated 10 minutes with 0.1 mg/ml", "result": 99.4, "unit": "%"}, {"measurement": "reduction of bacterial counts", "setting": "catheters coated 15 minutes with 0.1 mg/ml", "result": "completely cleared"}, {"measurement": "clearing of bacteria from coated catheters", "setting": "catheters incubated with SA8", "result": "completely cleared"}, {"measurement": "CFU recovered from the catheters, on average", "setting": "coated catheters incubated with MRSA (MBT5040)", "result": 1, "unit": "CFU"}, {"measurement": "clearing of bacteria from coated catheters", "setting": "vs 493 CFU's from control catheters", "result": "completely cleared of bacteria"}]}
